Values quoted from earlier work in patent publication US20120252687A1, “Scoring Function Penalizing Compounds Which Desolvate Charged Protein Side Chains Structure” (priority 2011, published 2012).

Key:
Cdk2 = Cdk2 (Homo sapiens, UniProt P24941); details: PDB complex
Jnk = Jnk (Homo sapiens, UniProt P53779); details: PDB complex
Jnk, sequence (P53779 whole entry): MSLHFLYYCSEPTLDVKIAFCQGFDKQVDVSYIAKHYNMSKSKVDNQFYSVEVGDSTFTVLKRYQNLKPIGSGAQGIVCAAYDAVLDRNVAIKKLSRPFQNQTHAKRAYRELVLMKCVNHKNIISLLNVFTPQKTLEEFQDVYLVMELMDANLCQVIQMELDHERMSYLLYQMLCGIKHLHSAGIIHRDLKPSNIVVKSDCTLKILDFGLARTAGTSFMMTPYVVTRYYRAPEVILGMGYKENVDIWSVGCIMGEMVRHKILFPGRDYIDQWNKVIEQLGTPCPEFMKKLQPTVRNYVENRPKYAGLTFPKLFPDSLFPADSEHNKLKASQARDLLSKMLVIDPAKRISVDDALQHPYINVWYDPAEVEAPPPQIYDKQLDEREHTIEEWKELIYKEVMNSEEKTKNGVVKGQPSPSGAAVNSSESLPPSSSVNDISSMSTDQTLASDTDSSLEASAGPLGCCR

| dG (experimental free energy of binding) (Cdk2) | dG (experimental free energy of binding) (Jnk) | SMILES |
| --- | --- | --- |
| −8.5 |  | NS(=O)(=O)c1ccc(Nc2cn3cc(C(=O)c4c(Cl)cccc4Cl)ccc3n2)cc1 [Cdk2_1ykr] |
|  | −7.5 | N#Cc1c(NC(=O)c2cccc3ccccc23)sc2c1CCN(C(=O)CCN1CCCCC1)C2 [Jnk_2o0u] |
